This note sets out measurements from patent US8912121B2, “Herbicidal compositions comprising 4-amino-3-chloro-5-fluoro-6-(4-chloro-2-fluoro-3-methoxyphenyl)pyridine-2-carboxylic acid or a derivative thereof and certain PS II inhibitors” (Dow Agrosciences LLC, priority 2012, dated 2014).

Molecules are shown by their SMILES.

The experiment has as its system ECHOR (Echinochloa oryzoides, early watergrass). The experiment can be described thus: In-water applied mixtures, transplanted paddy rice, greenhouse. The following applies: 19 DAA. In kind it is in vivo, Echinochloa oryzoides (Ard.) Fritsch. How it is done:
Weed seeds or nutlets of the desired test plant species were planted in puddled soil (mud) prepared by mixing a shredded, non-sterilized mineral soil (50.5 percent silt, 25.5 percent clay, and 24 percent sand, with a pH of about 7.6 and an organic matter content of about 2.9 percent) and water at a 1:1 volumetric ratio. The prepared mud was dispensed in 365 mL aliquots into 16-ounce (oz.) non-perforated plastic pots with a surface area of 86.59 square centimeters (cm^2) leaving a headspace of 3 centimeters (cm) in each pot Mud was allowed to dry overnight prior to planting or transplanting. Rice seeds were planted in Sun Gro MetroMix® 306 planting mixture, which typically has a pH of 6.0 to 6.8 and an organic matter content of about 30 percent, in plastic plug trays. Seedlings at the second or third leaf stage of growth were transplanted into 840 mL of mud contained in 32-oz. non-perforated plastic pots with a surface area of 86.59 cm^2 4 days prior to herbicide application. The paddy was created by filling the headspace of the pots with 2.5 to 3 cm of water. When required to ensure good germination and healthy plants, a fungicide treatment and/or other chemical or physical treatment was applied. The plants were grown for 4-22 days in a greenhouse with an approximate 14 h photoperiod which was maintained at about 29° C during the day and 26° C. during the night. Nutrients were added as Osmocote® (19:6:12, N:P:K+ minor nutrients) at 2 g per 16-oz. pot and 4 g per 32-oz. pot. Water was added on a regular basis to maintain the paddy flood, and supplemental lighting was provided with overhead metal halide 1000-Watt lamps as necessary. The plants were employed for testing when they reached the first through fourth true leaf stage.
Treatments consisted of the acid or esters of 4-amino-3-chloro-5-fluoro-6-(4-chloro-2-fluoro-3-methoxy-phenyl)pyridine-2-carboxylic acid (compound A) each formulated as an SC (suspension concentrate) and various herbicidal components alone and in combination. Forms of compound A were applied on an acid equivalent basis.
Other herbicidal components were applied on an active ingredient basis and included photosystem II (PSII)-inhibits propanil formulated as […] bentazon-sodium formulated as Basagran®, and simetryne (technical grade material).
Treatment requirements for each compound or herbicidal component were calculated based upon the rates being tested, the concentration of active ingredient or acid equivalent in the formulation, an application volume of 2 mL per component per pot, and an application area of 86.59 cm^2 per pot.
For formulated compounds, a measured amount was placed in an individual 100 or 200 mL glass vial and was dissolved in a volume of 1.25% (v/v) Agri-Dex® crop oil concentrate to obtain application solutions.
For technical grade compounds, a weighed amount was placed in an individual 100 to 200 mL glass vial and was dissolved in a volume of acetone to obtain concentrated stock solutions. […] The concentrated stock solutions obtained were diluted with an equivalent volume of an aqueous mixture containing 2.5% (v/v) crop oil concentrate so that the final application solutions contained 1.25% (v/v) crop oil concentrate.
Applications were made by injecting with a pipetter appropriate amounts of the application solutions, individually and sequentially, into the aqueous layer of the paddy. Control plants were treated in the same manner with the solvent blank. Applications were made so that all treated plant material received the same concentrations of acetone and crop oil concentrate.
The treated plants and control plants were placed in a greenhouse as described above and water was added as needed to maintain a paddy flood. After approximately 3 weeks the condition of the test plants as compared with that of the untreated plants was determined visually and scored on a scale of 0 to 100 percent where 0 corresponds to no injury or growth inhibition and 100 corresponds to complete kill. […]

Regarding `COc1c(Cl)ccc(-c2nc(C(=O)OCc3ccccc3)c(Cl)c(N)c2F)c1F` [Compound A Benzyl Ester, benzyl ester of 4-amino-3-chloro-5-fluoro-6-(4-chloro-2-fluoro-3-methoxy-phenyl)pyridine-2-carboxylic acid], the “Visual Weed Control (%) Obs” value by setting is: (8 g ae/ha) 10%; (16 g ae/ha) 20%; (32 g ae/ha) 25%.
